Experiments:
[1] = molecular target: Muscarinic acetylcholine receptor M1 (Homo sapiens) (UniProt P11229); details: Compound concentration 10.0 uM
[2] = molecular target: Growth hormone secretagogue receptor type 1 (Homo sapiens) (UniProt Q92847); details: Compound concentration 10.0 uM
[3] = molecular target: 5-hydroxytryptamine receptor 2A (Homo sapiens) (UniProt P28223); details: Compound concentration 10.0 uM
[4] = molecular target: 5-hydroxytryptamine receptor 2B (Homo sapiens) (UniProt P41595); details: Compound concentration 10.0 uM
[5] = molecular target: T1, 5-hydroxytryptamine receptor 1A (Homo sapiens) (UniProt P08908); details: Compound concentration 10.0 uM
T1 sequence (whole entry): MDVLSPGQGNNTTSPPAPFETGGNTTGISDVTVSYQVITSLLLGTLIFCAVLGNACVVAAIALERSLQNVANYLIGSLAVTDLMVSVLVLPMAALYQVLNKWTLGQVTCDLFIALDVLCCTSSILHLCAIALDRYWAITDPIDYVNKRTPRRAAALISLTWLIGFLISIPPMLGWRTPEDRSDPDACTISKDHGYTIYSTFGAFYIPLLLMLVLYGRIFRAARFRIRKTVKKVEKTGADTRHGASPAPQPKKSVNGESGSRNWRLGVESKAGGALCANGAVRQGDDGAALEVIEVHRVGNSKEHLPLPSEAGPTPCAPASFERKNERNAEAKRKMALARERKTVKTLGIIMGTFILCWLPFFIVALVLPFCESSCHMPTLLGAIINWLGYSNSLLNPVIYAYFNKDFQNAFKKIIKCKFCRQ

[6] = molecular target: Beta-3 adrenergic receptor (Homo sapiens, UniProt P13945); experiment: Adrenoceptor reporter cell assay (ADRB3); assay type: functional
[7] = molecular target: Type-2 angiotensin II receptor (Homo sapiens) (UniProt P50052); details: Compound concentration 10.0 uM
[8] = molecular target: Prostaglandin G/H synthase 2 (Homo sapiens) (UniProt P35354); experiment: Inhibition of Cyclooxygenase COX-2 at compound concentration of 10.0 uM in the Eurofins-Panlabs enzyme assay (Eurofins_assay_118010); parameters: substrate with concentration 0.3 uM Arachidonic acid, incubation time 15 min, incubation temperature 37 C; details: Compound concentration 10.0 uM
[9] = molecular target: Sodium-dependent dopamine transporter (Homo sapiens) (UniProt Q01959); details: Compound concentration 10.0 uM
[10] = molecular target: Insulin receptor (Homo sapiens) (UniProt P06213); details: Rattus norvegicus; Compound concentration 10.0 uM
[11] = molecular target: Alpha-1B adrenergic receptor (Homo sapiens, UniProt P35368); experiment: Adrenoceptor reporter cell assay (ADRA1B); assay type: functional
[12] = molecular target: T2, GABA-A receptor; anion channel (Rattus norvegicus) (UniProt O09028+P15431+P18506+P18508+P19969+P20236+P23574+P23576+P28471+P28473+P30191+P62813+P63079+P63138+Q91ZM7+Q9ES14); details: Compound concentration 10.0 uM
[13] = molecular target: Gamma-aminobutyric acid type B receptor subunit 1 (Homo sapiens) (UniProt Q9UBS5); details: Rattus norvegicus; Compound concentration 10.0 uM
[14] = molecular target: Thromboxane-A synthase (Homo sapiens) (UniProt P24557); experiment: Inhibition of Thromboxane Synthase at compound concentration of 10.0 uM in the Eurofins-Panlabs enzyme assay (Eurofins_assay_194020); parameters: substrate with concentration; details: Compound concentration 10.0 uM
[15] = molecular target: Delta-type opioid receptor (Homo sapiens) (UniProt P41143); details: Compound concentration 10.0 uM
[16] = molecular target: T3, Muscarinic acetylcholine receptor M4 (Homo sapiens) (UniProt P08173); details: Compound concentration 10.0 uM
T3 sequence (whole entry): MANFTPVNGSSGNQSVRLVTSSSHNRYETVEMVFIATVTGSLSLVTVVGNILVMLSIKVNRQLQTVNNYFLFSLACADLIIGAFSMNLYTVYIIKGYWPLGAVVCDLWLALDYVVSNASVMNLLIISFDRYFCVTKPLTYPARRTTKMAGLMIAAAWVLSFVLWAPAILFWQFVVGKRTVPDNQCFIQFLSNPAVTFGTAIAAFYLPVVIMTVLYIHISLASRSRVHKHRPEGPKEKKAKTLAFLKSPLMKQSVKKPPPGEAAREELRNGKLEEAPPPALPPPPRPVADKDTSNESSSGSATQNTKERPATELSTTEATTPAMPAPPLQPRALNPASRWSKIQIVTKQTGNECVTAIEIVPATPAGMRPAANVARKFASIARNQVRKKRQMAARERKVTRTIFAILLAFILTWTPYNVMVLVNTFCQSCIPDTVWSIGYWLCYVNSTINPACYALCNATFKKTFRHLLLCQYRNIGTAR

[17] = molecular target: Adenosine Transporter (Cavia porcellus) (UniProt H0V4R7+H0UUG1+H0V3Z5); experiment: Inhibition of Transporter, Adenosine at compound concentration of 10.0 uM in the Eurofins-Panlabs radioligand binding assay (Eurofins_assay_202000); assay type: protein assay; parameters: ligand concentration 0.5 nM, non-specific ligand with concentration 5 uM Nitrobenzylthioinosine, incubation time 30 min, incubation temperature 25 C; details: Compound concentration 10.0 uM
[18] = molecular target: T4, D(2) dopamine receptor (Homo sapiens, UniProt P14416); details: Compound concentration 10.0 uM
[19] = molecular target: Endothelin-1 receptor (Homo sapiens) (UniProt P25101); details: Compound concentration 10.0 uM
[20] = molecular target: D(1A) dopamine receptor (Homo sapiens) (UniProt P21728); details: Compound concentration 10.0 uM
[21] = molecular target: T4, D(2) dopamine receptor; details: Compound concentration 10.0 uM; remark: listed apart in the source
[22] = molecular target: D(3) dopamine receptor (Homo sapiens) (UniProt P35462); details: Compound concentration 10.0 uM
[23] = molecular target: T2, GABA-A receptor; anion channel (Rattus norvegicus); details: Compound concentration 10.0 uM; remark: listed apart in the source
[24] = molecular target: Sodium-dependent dopamine transporter (Homo sapiens) (UniProt Q01959); details: Compound concentration 10.0 uM; remark: listed apart in the source
[25] = molecular target: Alpha-2B adrenergic receptor (Homo sapiens) (UniProt P18089); details: filed as antagonist, Compound concentration 10.0 uM
Sequence of Alpha-2B adrenergic receptor (Homo sapiens) (P18089 whole entry): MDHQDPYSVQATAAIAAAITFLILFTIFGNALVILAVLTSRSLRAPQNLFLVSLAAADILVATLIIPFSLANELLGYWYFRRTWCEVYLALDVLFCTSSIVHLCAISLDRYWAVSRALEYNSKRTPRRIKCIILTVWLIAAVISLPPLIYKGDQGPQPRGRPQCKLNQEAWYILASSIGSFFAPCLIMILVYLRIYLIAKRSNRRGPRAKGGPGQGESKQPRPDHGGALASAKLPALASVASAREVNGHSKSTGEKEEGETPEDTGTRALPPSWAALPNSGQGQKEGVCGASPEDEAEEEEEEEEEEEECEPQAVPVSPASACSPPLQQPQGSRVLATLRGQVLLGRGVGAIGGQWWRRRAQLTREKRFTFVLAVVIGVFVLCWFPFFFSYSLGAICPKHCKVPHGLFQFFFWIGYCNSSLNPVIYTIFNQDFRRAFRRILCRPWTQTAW

Sequence of Sodium-dependent dopamine transporter (Homo sapiens) (Q01959 whole entry): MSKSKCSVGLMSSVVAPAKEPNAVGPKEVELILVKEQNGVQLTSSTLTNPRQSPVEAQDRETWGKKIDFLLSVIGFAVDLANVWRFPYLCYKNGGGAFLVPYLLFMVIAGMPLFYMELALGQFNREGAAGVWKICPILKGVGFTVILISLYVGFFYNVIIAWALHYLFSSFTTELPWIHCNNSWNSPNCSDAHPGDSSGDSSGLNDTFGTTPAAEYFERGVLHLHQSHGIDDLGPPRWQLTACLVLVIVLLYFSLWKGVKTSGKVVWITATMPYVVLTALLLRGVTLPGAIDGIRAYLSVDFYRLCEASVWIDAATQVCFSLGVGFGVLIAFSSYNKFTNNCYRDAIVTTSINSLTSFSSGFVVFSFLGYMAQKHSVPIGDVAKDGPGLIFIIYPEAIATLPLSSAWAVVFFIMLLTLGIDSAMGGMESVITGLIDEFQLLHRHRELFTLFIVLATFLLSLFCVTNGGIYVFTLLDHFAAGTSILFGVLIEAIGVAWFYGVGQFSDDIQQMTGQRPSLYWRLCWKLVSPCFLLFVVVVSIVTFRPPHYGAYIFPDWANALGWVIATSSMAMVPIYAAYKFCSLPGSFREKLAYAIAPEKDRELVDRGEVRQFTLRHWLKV
T4 sequence (P14416 whole entry): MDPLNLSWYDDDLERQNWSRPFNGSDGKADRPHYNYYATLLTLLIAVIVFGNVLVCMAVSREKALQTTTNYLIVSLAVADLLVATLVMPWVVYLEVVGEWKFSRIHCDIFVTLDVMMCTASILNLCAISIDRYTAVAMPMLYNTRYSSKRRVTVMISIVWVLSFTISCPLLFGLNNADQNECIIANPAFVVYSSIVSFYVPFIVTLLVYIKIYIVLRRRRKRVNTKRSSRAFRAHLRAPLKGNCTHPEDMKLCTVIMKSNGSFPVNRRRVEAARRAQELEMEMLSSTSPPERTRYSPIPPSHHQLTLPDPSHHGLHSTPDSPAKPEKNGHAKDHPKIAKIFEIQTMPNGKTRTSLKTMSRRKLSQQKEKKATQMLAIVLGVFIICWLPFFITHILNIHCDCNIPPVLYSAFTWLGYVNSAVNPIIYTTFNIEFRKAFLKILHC
Sequence of Growth hormone secretagogue receptor type 1 (Homo sapiens) (Q92847 whole entry): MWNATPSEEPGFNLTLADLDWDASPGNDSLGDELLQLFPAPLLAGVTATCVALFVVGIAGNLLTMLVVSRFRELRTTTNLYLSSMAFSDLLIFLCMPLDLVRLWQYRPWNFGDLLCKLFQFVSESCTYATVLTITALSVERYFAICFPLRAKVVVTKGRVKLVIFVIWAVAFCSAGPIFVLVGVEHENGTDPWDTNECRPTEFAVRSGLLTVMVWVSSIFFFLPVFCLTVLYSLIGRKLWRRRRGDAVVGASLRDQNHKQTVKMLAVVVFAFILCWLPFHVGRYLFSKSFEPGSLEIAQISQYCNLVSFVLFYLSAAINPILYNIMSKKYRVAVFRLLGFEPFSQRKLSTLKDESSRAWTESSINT
Sequence of Prostaglandin G/H synthase 2 (Homo sapiens) (P35354 whole entry): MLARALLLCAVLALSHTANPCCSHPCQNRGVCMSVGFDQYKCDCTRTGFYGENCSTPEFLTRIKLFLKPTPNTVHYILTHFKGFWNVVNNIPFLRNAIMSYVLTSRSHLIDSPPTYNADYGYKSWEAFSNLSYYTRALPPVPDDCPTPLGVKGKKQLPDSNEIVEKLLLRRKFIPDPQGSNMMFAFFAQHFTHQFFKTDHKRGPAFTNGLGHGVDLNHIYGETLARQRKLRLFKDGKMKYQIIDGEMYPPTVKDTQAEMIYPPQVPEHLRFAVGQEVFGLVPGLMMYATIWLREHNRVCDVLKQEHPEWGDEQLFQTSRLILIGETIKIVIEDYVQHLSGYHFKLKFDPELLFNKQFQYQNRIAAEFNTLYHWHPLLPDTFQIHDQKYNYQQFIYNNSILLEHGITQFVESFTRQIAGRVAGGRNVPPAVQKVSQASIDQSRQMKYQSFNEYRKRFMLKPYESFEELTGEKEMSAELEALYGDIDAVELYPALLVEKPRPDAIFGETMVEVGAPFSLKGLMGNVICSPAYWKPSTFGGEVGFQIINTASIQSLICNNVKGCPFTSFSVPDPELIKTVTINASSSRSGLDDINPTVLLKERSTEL
Sequence of Alpha-1B adrenergic receptor (P35368 whole entry): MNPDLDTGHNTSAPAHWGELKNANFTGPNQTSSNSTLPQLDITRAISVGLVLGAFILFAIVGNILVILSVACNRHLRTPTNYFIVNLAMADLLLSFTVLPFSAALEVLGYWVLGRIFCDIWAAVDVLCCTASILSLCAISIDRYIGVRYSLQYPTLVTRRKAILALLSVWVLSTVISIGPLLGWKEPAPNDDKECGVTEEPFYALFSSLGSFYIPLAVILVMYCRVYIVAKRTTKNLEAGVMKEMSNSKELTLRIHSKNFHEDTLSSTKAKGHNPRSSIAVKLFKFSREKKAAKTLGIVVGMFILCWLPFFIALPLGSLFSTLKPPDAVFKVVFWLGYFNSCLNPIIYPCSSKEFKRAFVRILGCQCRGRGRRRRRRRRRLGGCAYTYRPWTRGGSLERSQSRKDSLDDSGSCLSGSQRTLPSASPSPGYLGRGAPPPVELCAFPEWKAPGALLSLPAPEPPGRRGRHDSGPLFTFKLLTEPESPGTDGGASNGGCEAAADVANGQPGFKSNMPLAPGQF
Sequence of Muscarinic acetylcholine receptor M1 (Homo sapiens) (P11229 whole entry): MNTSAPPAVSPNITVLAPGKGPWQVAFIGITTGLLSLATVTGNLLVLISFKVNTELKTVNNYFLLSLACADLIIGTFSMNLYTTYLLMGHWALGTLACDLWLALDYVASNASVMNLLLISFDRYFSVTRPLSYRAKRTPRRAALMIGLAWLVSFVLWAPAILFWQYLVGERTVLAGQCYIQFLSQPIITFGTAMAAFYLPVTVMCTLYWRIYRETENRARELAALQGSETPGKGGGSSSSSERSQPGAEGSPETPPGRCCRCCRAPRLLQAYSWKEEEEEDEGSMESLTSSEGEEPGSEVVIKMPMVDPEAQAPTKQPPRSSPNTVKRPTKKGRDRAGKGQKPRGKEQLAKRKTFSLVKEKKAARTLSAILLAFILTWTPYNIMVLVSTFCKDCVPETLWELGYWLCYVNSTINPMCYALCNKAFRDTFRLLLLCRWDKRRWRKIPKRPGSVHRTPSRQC
Sequence of Insulin receptor (Homo sapiens) (P06213 28-758 limits assumed): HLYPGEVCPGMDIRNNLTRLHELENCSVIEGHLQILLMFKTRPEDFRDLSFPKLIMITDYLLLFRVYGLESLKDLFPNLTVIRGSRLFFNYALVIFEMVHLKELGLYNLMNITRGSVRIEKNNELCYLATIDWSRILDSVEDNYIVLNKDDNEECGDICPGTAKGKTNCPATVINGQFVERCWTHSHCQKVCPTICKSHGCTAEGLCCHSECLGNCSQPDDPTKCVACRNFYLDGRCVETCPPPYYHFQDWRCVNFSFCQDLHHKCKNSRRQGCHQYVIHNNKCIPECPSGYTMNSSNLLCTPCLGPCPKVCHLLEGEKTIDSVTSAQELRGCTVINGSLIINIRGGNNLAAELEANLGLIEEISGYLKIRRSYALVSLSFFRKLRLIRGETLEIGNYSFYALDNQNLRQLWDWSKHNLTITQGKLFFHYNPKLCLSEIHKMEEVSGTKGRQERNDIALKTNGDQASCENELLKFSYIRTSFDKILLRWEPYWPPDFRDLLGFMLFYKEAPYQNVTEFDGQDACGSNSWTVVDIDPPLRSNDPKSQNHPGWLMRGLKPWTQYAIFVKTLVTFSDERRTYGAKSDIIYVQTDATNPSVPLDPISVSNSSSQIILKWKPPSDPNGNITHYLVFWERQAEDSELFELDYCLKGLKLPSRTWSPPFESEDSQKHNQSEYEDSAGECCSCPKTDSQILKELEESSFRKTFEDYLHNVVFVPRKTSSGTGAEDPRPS
Sequence of Insulin receptor (Homo sapiens) (P06213 763-1382 limits assumed): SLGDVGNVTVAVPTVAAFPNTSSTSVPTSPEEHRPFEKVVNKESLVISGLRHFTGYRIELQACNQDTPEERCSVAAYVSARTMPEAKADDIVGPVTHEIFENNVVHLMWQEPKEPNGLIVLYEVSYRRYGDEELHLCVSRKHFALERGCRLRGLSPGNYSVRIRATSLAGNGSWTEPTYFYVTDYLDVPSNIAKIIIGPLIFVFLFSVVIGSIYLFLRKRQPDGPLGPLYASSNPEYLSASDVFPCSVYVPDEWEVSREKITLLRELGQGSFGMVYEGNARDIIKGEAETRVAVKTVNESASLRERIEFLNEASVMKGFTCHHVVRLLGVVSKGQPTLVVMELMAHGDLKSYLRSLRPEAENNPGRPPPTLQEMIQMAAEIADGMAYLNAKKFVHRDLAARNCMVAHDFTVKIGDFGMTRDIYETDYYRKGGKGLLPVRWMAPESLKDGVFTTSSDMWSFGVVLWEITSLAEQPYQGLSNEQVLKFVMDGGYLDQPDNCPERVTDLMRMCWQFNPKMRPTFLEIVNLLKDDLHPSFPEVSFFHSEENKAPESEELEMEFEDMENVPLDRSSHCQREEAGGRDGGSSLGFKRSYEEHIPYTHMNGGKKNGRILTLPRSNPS

CNc1cc[n+](CCNC(=O)c2ccn3c(-c4c(C)noc4C)cnc3c2)cc1
inhibition [1]: -4.1%
inhibition [2]: 2.3%
inhibition [3]: 1%
inhibition [4]: 0%
inhibition [5]: 25.3%
IC50 [6]: > 10 µM (not active)
inhibition [7]: 4.1%
inhibition [8]: -8.7%
inhibition [9]: 20.3%
inhibition [10]: -3.4%
IC50 [11]: > 10 µM (not active)
inhibition [12]: -1.9%
inhibition [13]: 2.1%
inhibition [14]: -8.2%
inhibition [15]: -5.3%
inhibition [16]: 3.5%
inhibition [17]: -2.2%
inhibition [18]: -5.2%
inhibition [19]: -2.2%
inhibition [20]: -6.7%
inhibition [21]: -1.6%
inhibition [22]: -4.7%
inhibition [23]: -3.7%

Cc1noc(C)c1-c1cnc2cc(C(=O)NCCC[n+]3ccc(N(C)C)cc3)ccn12
inhibition [24]: -3.28%
inhibition [25]: 54.6%
